What was measured:
Assay type in all cases: in vivo
[1] = tested on: redroot pigweed (Amaranthus retroflexus, AMARE); assay: Pre-emerge test, greenhouse herbicide activity screening; conditions: rated 14 days after application, 0 = no damage, 100 = complete death
Outline: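 Compounds in acetone were track-sprayed at 15-1000 g ai/ha (187 l/ha) on sandy loam pots: pre-emerge one day after seeding, post-emerge at 2-3 leaf stage with 0.25% v/v non-ionic surfactant. Phytotoxicity was rated 14 days later on a 0 (no damage) to 100 (complete death) scale.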

[2] = tested on: barnyardgrass (Echinochloa crus-galli, ECHCG); assay: as above; conditions: rated 14 days after application, 0 = no damage, 100 = complete death
Outline: (§1)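 Sandy loam pots; pre-emerge: sown 1 d pre-spray, surface-watered after, then bottom-watered. Post-emerge: sown 8–21 d before, 2–3 leaf stage, + 0.25% v/v NIS, bottom-watered. Acetone, 187 l/ha track spray, 15–1000 g ai/ha. 0–100 injury score, day 14.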

[3] = tested on: common ragweed (Ambrosia artemisizfolia L., AMBEL); assay: as above; conditions: rated 14 days after application, 0 = no damage, 100 = complete death
Outline: as §1

[4] = tested on: green foxtail (Setaria viridis, SETVI); assay: as above; conditions: rated 14 days after application, 0 = no damage, 100 = complete death
Outline: as §1

[5] = tested on: ivyleaf morningglory (Ipomoea hederacea, IPOHE); assay: as above; conditions: rated 14 days after application, 0 = no damage, 100 = complete death
Outline: as §1

[6] = tested on: johnsongrass (Sorghum halepense, SORHA); assay: as above; conditions: rated 14 days after application, 0 = no damage, 100 = complete death
Outline: as §1

[7] = tested on: lambsquarters (Chenopodium album, CHEAL); assay: as above; conditions: rated 14 days after application, 0 = no damage, 100 = complete death
Outline: as §1

[8] = tested on: large crabgrass (Digitaria sanguinalis, DIGSA); assay: as above; conditions: rated 14 days after application, 0 = no damage, 100 = complete death
Outline: as §1

[9] = tested on: sicklepod (Cassia obtusifolia, CASOB); assay: as above; conditions: rated 14 days after application, 0 = no damage, 100 = complete death
Outline: as §1

[10] = tested on: velvetleaf (Abutilon theophrasti, ABUTH); assay: as above; conditions: rated 14 days after application, 0 = no damage, 100 = complete death
Outline: as §1

[11] = tested on: field corn (Zea mays L., var. Dekalb 535, CORN); assay: Pre-emerge test, crop safety; conditions: rated 14 days after application, 0 = no damage, 100 = complete death
Outline: (§2)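 Plants grown in 10 cm pots of sandy loam mix received acetone-dissolved compounds through a moving flat-fan nozzle. Doses ranged from 15 to 1000 g ai/ha. Pre-emerge pots were seeded one day earlier, post-emerge pots 8–21 days earlier. Fourteen days on, each pot was graded 0–100 for damage.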

[12] = tested on: upland rice (Oryza sp., var. Tebonnet, RICE); assay: Pre-emerge test, crop safety; conditions: rated 14 days after application, 0 = no damage, 100 = complete death
Outline: as §2

[13] = tested on: barnyardgrass (Echinochloa crus-galli, ECHCG); assay: Post-emerge test, greenhouse herbicide activity screening; conditions: post-emerge, 14 days after application, rating scale 0-100
Outline: (§3)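 Rating: 0–100 visual injury, 14 DAA. Application: acetone, 187 l/ha, 15–1000 g ai/ha, flat-fan track sprayer with nozzle 40–45 cm above soil or canopy. Post-emerge runs used 0.25% v/v surfactant on 2–3 leaf plants.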

[14] = tested on: common ragweed (Ambrosia artemisizfolia L., AMBEL); assay: as above; conditions: post-emerge, 14 days after application, rating scale 0-100
Outline: as §3

[15] = tested on: ivyleaf morningglory (Ipomoea hederacea, IPOHE); assay: as above; conditions: post-emerge, 14 days after application, rating scale 0-100
Outline: as §3

[16] = tested on: johnsongrass (Sorghum halepense, SORHA); assay: as above; conditions: post-emerge, 14 days after application, rating scale 0-100
Outline: as §3

[17] = tested on: lambsquarters (Chenopodium album, CHEAL); assay: as above; conditions: post-emerge, 14 days after application, rating scale 0-100
Outline: as §3

[18] = tested on: large crabgrass (Digitaria sanguinalis, DIGSA); assay: as above; conditions: post-emerge, 14 days after application, rating scale 0-100
Outline: as §3

[19] = tested on: redroot pigweed (Amaranthus retroflexus, AMARE); assay: as above; conditions: post-emerge, 14 days after application, rating scale 0-100
Outline: as §3

[20] = tested on: sicklepod (Cassia obtusifolia, CASOB); assay: as above; conditions: post-emerge, 14 days after application, rating scale 0-100
Outline: as §3

[21] = tested on: velvetleaf (Abutilon theophrasti, ABUTH); assay: as above; conditions: post-emerge, 14 days after application, rating scale 0-100
Outline: as §3

[22] = tested on: field corn (Zea mays L., var. Dekalb 535, CORN); assay: Post-emerge test, crop safety; conditions: post-emerge, 14 days after application, rating scale 0-100
Outline: as §1

[23] = tested on: upland rice (Oryza sp., var. Tebonnet, RICE); assay: Post-emerge test, crop safety; conditions: post-emerge, 14 days after application, rating scale 0-100
Outline: as §1

COc1c(Cl)cc(F)c(-n2c(=O)cc(C(F)(F)F)n(C)c2=O)c1NC(=O)c1ccc(-c2ccccc2)cc1 [2-37]
30: Pre-emerge Herbicidal Activity, phytotoxicity rating (0-100), AMARE ([1]; 250 g ai/ha) | Pre-emerge Herbicidal Activity, phytotoxicity rating (0-100), ABUTH ([10]; 250 g ai/ha) | phytotoxicity rating ABUTH ([21]; 250 g ai/ha)
10: phytotoxicity rating AMARE ([19]; 250 g ai/ha)
0: Pre-emerge Herbicidal Activity, phytotoxicity rating (0-100), AMARE ([1]; 63 g ai/ha) | Pre-emerge Herbicidal Activity, phytotoxicity rating (0-100), ECHCG ([2]; 63 g ai/ha) | Pre-emerge Herbicidal Activity, phytotoxicity rating (0-100), ECHCG ([2]; 250 g ai/ha) | Pre-emerge Herbicidal Activity, phytotoxicity rating (0-100), AMBEL ([3]; 63 g ai/ha) | Pre-emerge Herbicidal Activity, phytotoxicity rating (0-100), AMBEL ([3]; 250 g ai/ha) | Pre-emerge Herbicidal Activity, phytotoxicity rating (0-100), SETVI ([4]; 63 g ai/ha) | Pre-emerge Herbicidal Activity, phytotoxicity rating (0-100), SETVI ([4]; 250 g ai/ha) | Pre-emerge Herbicidal Activity, phytotoxicity rating (0-100), IPOHE ([5]; 63 g ai/ha) | Pre-emerge Herbicidal Activity, phytotoxicity rating (0-100), IPOHE ([5]; 250 g ai/ha) | Pre-emerge Herbicidal Activity, phytotoxicity rating (0-100), SORHA ([6]; 63 g ai/ha) | Pre-emerge Herbicidal Activity, phytotoxicity rating (0-100), SORHA ([6]; 250 g ai/ha) | Pre-emerge Herbicidal Activity, phytotoxicity rating (0-100), CHEAL ([7]; 63 g ai/ha) | Pre-emerge Herbicidal Activity, phytotoxicity rating (0-100), DIGSA ([8]; 63 g ai/ha) | Pre-emerge Herbicidal Activity, phytotoxicity rating (0-100), DIGSA ([8]; 250 g ai/ha) | Pre-emerge Herbicidal Activity, phytotoxicity rating (0-100), CASOB ([9]; 63 g ai/ha) | Pre-emerge Herbicidal Activity, phytotoxicity rating (0-100), CASOB ([9]; 250 g ai/ha) | Pre-emerge Herbicidal Activity, phytotoxicity rating (0-100), ABUTH ([10]; 63 g ai/ha) | Pre-emerge phytotoxicity rating (0-100), crop damage, CORN ([11]; 63 g ai/ha) | Pre-emerge phytotoxicity rating (0-100), crop damage, CORN ([11]; 250 g ai/ha) | Pre-emerge phytotoxicity rating (0-100), crop damage, RICE ([12]; 63 g ai/ha) | Pre-emerge phytotoxicity rating (0-100), crop damage, RICE ([12]; 250 g ai/ha) | phytotoxicity rating ECHCG ([13]; 63 g ai/ha) | phytotoxicity rating ECHCG ([13]; 250 g ai/ha) | phytotoxicity rating AMBEL ([14]; 63 g ai/ha) | phytotoxicity rating AMBEL ([14]; 250 g ai/ha) | phytotoxicity rating IPOHE ([15]; 63 g ai/ha) | phytotoxicity rating IPOHE ([15]; 250 g ai/ha) | phytotoxicity rating SORHA ([16]; 63 g ai/ha) | phytotoxicity rating SORHA ([16]; 250 g ai/ha) | phytotoxicity rating CHEAL ([17]; 63 g ai/ha) | phytotoxicity rating DIGSA ([18]; 63 g ai/ha) | phytotoxicity rating DIGSA ([18]; 250 g ai/ha) | phytotoxicity rating AMARE ([19]; 63 g ai/ha) | phytotoxicity rating CASOB ([20]; 63 g ai/ha) | phytotoxicity rating CASOB ([20]; 250 g ai/ha) | phytotoxicity rating ABUTH ([21]; 63 g ai/ha) | phytotoxicity rating CORN ([22]; 63 g ai/ha) | phytotoxicity rating CORN ([22]; 250 g ai/ha) | phytotoxicity rating RICE ([23]; 63 g ai/ha) | phytotoxicity rating RICE ([23]; 250 g ai/ha)
50: Pre-emerge Herbicidal Activity, phytotoxicity rating (0-100), CHEAL ([7]; 250 g ai/ha)
20: phytotoxicity rating CHEAL ([17]; 250 g ai/ha)

— patent US6355799B1, “Substituted benzene compounds, process for their preparation, and herbicidal and defoliant compositions containing them” (ISK Americas Incorporated, priority 1997, dated 2002)
